Results on 3 compounds are retold here after US20180321220A1, “UNIVERSAL BIOELECTROCHEMICAL METABOLIC FLUX MEASUREMENT SYSTEM AND METHODS OF MAKING AND USING THE SAME” (Saint Louis University, priority 2015, published 2018).

Assay [1] relates to mouse liver mitochondria. Kind of assay: Metabolic flux analysis (amperometry) of mouse liver mitochondria suspension. In kind it is biochemical. The following applies: for inhibitory response (electron flux): substrate not stated; for inhibitory response (electron flux) / attenuation of electron flux: in words; for Electron flux generated: rotenone present (1 μl of 1 mg/ml in DMSO), 120 seconds of measurement, 600 mV. The source says:
(§1) Materials. Sodium phosphate monobasic (Sigma), sodium phosphate dibasic (Sigma), sodium chloride (Sigma), sodium pyruvate (Sigma), citric acid (Sigma), rotenone (Sigma), adenosine diphosphate (Sigma), sucrose (Sigma), Tris-EDTA (Sigma), Protease inhibitor cocktail (Sigma), deionized water (in house), and dimethylsulfoxide (Sigma) were used as received. All wild-type Drosophila larvae were hatched and grown on standard cornmeal-agar-molasses-yeast food at room temperature. Individual larvae were selected used for metabolic flux analysis. Mitochondria were isolated from normal mice liver. All steps were carried out at 4° C. Tissues were kept on ice. The liver tissue was homogenized in 3 volumes of Buffer A (0.33 M sucrose, 1.33 m M Tris-EDTA, pH 7.4 buffer containing protease inhibitors) using potter Dounce homogenizer. Once homogenized two more volumes of Buffer A were added and mixed before centrifugation at 1000 Xg for 10-15 mins. The supernatant was then recovered and centrifuged 2 times more to remove impurities. Finally, the supernatant was recovered and centrifuged at 15,000 Xg for 20 mins. The mitochondrial pellet recovered from the bottom of the centrifuge tube and suspended at a protein concentration of 35 mg/ml in phosphate buffered saline at pH 7.5. Once the extraction was complete the mitochondria was stored at −80° C. in small aliquots for further use.
Metabolic flux analysis. The electrochemical test setup consisted of a USTAT 200 Bipotentiostat coupled to a Dropsens SPE 110 screen printed electrode chip that included a carbon working electrode, a carbon counter electrode, and a silver reference electrode. The working substrate solution consisted of pH 7.40 10 mM phosphate buffer, 137 mM sodium chloride, 10 mM metabolic substrate, and 1 mg/ml adenosine diphosphate. The inhibitor solution consisted of 1 mg/ml rotenone in dimethyl sulfoxide. For uninhibited experiments pure dimethyl sulfoxide was used to maintain consistency. To the electrode 35 μl of substrate solution was dropped on top of the 3 electrode working area of the chip ensuring that all of the electrode surfaces were thoroughly wetted. To this drop, 1 μl of dimethyl sulfoxide was added that may or may not contain inhibitor. When the experiment was ready to begin the sample was added to the electrode. For mitochondrial suspension, 15 μL of the suspension was added to the working area of the chip. For the larvae, one larvae was placed into the drop of solution on to the working electrode. Amperometry was then performed with an applied potential of 600 mV with respect to the reference electrode for 120 seconds.

In assay [2] the test system is mouse liver mitochondria. The following applies: pyruvate as substrate, in words; Dröse et al. cited; cited from earlier work.
A further assay concerns whole drosophilae larvae. Kind of assay: Metabolic flux analysis (amperometry) of whole Drosophila larvae. In kind it is in vivo.
Excerpt: as §1, with “Once the extraction was complete the mitochondria was stored at −80° C. in small aliquots for further use.” left out
Metabolic flux analysis. […] When the experiment was ready to begin the sample was added to the electrode. […]

On to antimycin, for which the “inhibitory response (electron flux)” value in the assay with mouse liver mitochondria [1] is “strong inhibitory responses”.
On to `CC1=NS(=O)(=O)c2cc(Cl)ccc2N1` [diazoxide], for which the “inhibition of electron flux” value in the assay with mouse liver mitochondria [2] is given as “partial inhibition”.
Regarding `C=C(C)[C@H]1Cc2c(ccc3c2O[C@@H]2COc4cc(OC)c(OC)cc4[C@@H]2C3=O)O1` [rotenone], the figures for the “attenuation of electron flux” value in the assay on mouse liver mitochondria [1] (citrate as metabolic substrate) and in the assay with mouse liver mitochondria [1] (pyruvate as metabolic substrate) were “did not exhibit significant inhibition” and “diminished”, respectively. The Electron flux generated with mouse liver mitochondria [1] (citrate as substrate) is 1.536×10^−4 micromoles of electrons; in the assay on mouse liver mitochondria [1] (pyruvate as substrate) it was 1.435×10^−4 micromoles of electrons; in the assay on whole drosophilae larvae (glucose as substrate, rotenone present (1 μl of 1 mg/ml in DMSO), 120 seconds of measurement, 600 mV) it was 3.302×10^−4 micromoles of electrons. Further, in the assay on mouse liver mitochondria [1], the “inhibitory response (electron flux)” value is recorded as “strong inhibitory responses”. Further, the “attenuation of metabolic flux” value in the assay on whole drosophilae larvae (glucose solution, in words) is recorded as “diminished”.
